Source: patent US20260152395A1, “SUSTAINED-RELEASE CHLORINE DIOXIDE GAS […] AND METHOD” (ABC MEDICAL CO., LTD., priority 2022, published 2026)

Experiment: Chlorine dioxide generation test 1: organic substance added to sodium chlorite solution, reactivity observed
Assay type: physicochemical
Design: key: high reaction rate (+++++) resulted in the initiation of chlorine dioxide gas generation relatively quickly within several hours to several days after the addition; intermediate reaction rate (+++) resulted in the initiation of chlorine dioxide gas generation within several days to several tens of days after the addition; The reaction initiation time of the organic substances with a slow reaction rate (+) is hard to specify
Conditions: organic substance added to 23% aqueous sodium chlorite; room temperature and refrigerated temperature
Description: To investigate the reactivity with and the risk of sodium chlorite depending on the type of organic substance, each of organic substances in Table 1 was added to a 23% aqueous solution of sodium chlorite to observe the reactivity at room temperature and refrigerated temperature.

| SMILES | Reaction rate |
| --- | --- |
| OO [Hydrogen peroxide] | No reaction |
| N[C@@H](CCC(=O)[O-])C(=O)[O-].[Na+].[Na+] [Sodium glutamate] | +++++ |
| [Ca+2].[OH-].[OH-] [Calcium hydroxide] | No reaction |
| O=C([O-])[O-].[Na+].[Na+] [Sodium carbonate] | + |
| [K+].[OH-] [Potassium hydroxide] | No reaction |
| O=C1NS(=O)(=O)c2ccccc21.[Na] [Sodium saccharin] | +++ |
| OC[C@H]1O[C@@](CO)(O[C@H]2O[C@H](CO)[C@@H](O)[C@H](O)[C@H]2O)[C@@H](O)[C@@H]1O [Sucrose] | +++ |
| [Na+].[OH-] [Sodium hydroxide] | No reaction |
| O=C(CO)[C@@H](O)[C@H](O)[C@H](O)CO [Fructose] | +++ |
| OC[C@@H](O)[C@@H](O)[C@H](O)[C@@H](O)CO [Sorbitol] | +++ |
| [Cl-].[Na+] [Salt] | No reaction |
| OCC(O)CO [Glycerol] | +++++ |
| OC[C@H]1O[C@H](O[C@H]2O[C@H](CO)[C@@H](O)[C@H](O)[C@H]2O)[C@H](O)[C@@H](O)[C@@H]1O [Trehalose] | +++ |
| CCO [Ethanol] | +++++ |
| [O]=[Ca] [Calcium oxide] | No reaction |
